Results published in article PMC11292009, “Mapping protein binding sites by photoreactive fragment pharmacophores” (Communications Chemistry, 2024).

Columns and labels:
STAT5B-NTD [1] = system: T1, STAT5B-NTD; experiment: Intact MS labeling screen, STAT5B-NTD conjugated with photocatalyst Ir-G2-PEG3-COOH (450 nm); format: binding; settings: 450 nm 10 min;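 also: 0.14 µL of 100 mM DMSO fragment stock added to the conjugate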
T1 construct: His-SUMO (N, cleaved yes); made in house; host or cells: E. coli BL21 RILP
Summary of the method: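 Ir-G2-PEG3-COOH photocatalyst (10 eq) activated 30 min with EDC/NHS/BOP, then conjugated to STAT5B-NTD (7 µM) overnight at RT or 1 h at 37 °C in dark. PhP added, 1 h dark, then 450 nm irradiation 10 min at 4 °C; labeling read by intact LC-MS, positive ion mode, m/z 100–2000.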

KRas^G12D = system: T2, KRas^G12D; experiment: Intact MS photoaffinity labeling screen, KRas G12D (302 nm, LCMS-TOF); format: binding
T2 construct: purchased GSK/GenScript
Summary of the method: (§1)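 Labeling detected as mass additions in deconvoluted intact-protein LCMS-TOF spectra. Protein at 1 μM in PBS was first mixed with one fragment per well on ice for 15 min, followed by 10 min UV exposure at 302 nm.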

lysozyme (Lyo) = experiment: Intact protein MS photoaffinity labeling screen, lysozyme; format: binding; settings: intact protein MS after 10 min irradiation
Summary of the method: (§2)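 Fragments are tested singly per well. Protein and fragment incubate 15 min for non-covalent association, then the plate goes directly to intact protein mass spectrometry, where mass shifts matching fragment addition give the labeling %.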

[2] = system: carbonic anhydrase II (CA); experiment: Intact protein MS photoaffinity labeling screen, carbonic anhydrase; format: binding; settings: intact protein MS after 10 min irradiation
Summary of the method: as §2

BRD4-BD1 = system: T3, BRD4-BD1; experiment: Intact MS photoaffinity labeling screen, BRD4-BD1 (302 nm, LCMS-TOF); format: binding; settings: sheet PhP, experimental hit status flag given as 0 or 1
T3 construct: screened the PhP library against the first bromodomain of BRD4 (BRD4-BD1); purchased GSK/GenScript
Summary of the method: as §1

myoglobin (Myo) = experiment: Intact protein MS photoaffinity labeling screen, myoglobin; format: binding; settings: intact protein MS after 10 min irradiation
Summary of the method: as §2

[3] = system: T4, Kras G12D protein / SOS1 exchange domain; experiment: Kras-SOS exchange assay (MANT-GDP); format: biochemical
T4 construct: Cytoskeleton, Inc. (SOS1 exchange domain only) GE02
Procedure: MANT-GDP loading assay: Kras^G12D protein was first buffer exchanged into low magnesium buffer (20 mM HEPES-NaOH (pH 7.5), 50 mM NaCl, 0.5 mM MgCl2) using a NAP5 column (catalog no.: 17-0583-1, Cytiva). The proteins were then incubated with 20-fold molar excess of N-methylanthraniloyl (MANT)-GDP (catalog no.: 69244, Sigma-Aldrich) in loading buffer (50 mM NaCl, 20 mM HEPES-NaOH [pH 7.5], 0.5 mM MgCl2, 10 mM EDTA, and 1 mM Dithiothreitol (DTT)) in a total volume of 200 μL at 20 °C for 90 min. The reaction was stopped by adding MgCl2 to a final concentration of 10 mM, then incubated at 20 °C for 30 min. The unbound MANT-GDP was removed using the NAP-5 column equilibrated with nucleotide exchange buffer (40 mM HEPES-NaOH (pH 7.5), 50 mM NaCl, 10 mM MgCl2, 2 mM DTT).
MANT-GDP exchange assay: First the MANT-GDP bound Kras G12D protein (in a final 1 μM molar concentration) was preincubated with the inhibitor molecules for 60 min. After the preincubation the samples were exposed to UV light for 10 min with a wavelength of 366 nm. The UV-treated MANT-GDP Kras-inhibitor mix was loaded into a black 384 well microplate. The nucleotide exchange reaction was initiated by adding 100 fold molar excess of GppNHp (catalog no.: G0635, Sigma-Aldrich), a non-hydrolyzable GTP analog and the SOS1 exchange domain (catalog no.: GE02, Cytoskeleton, Inc.) protein in 0.5 μM final concentration. The change in fluorescence intensity was measured every 30 s in room temperature for 60 min on an EnSpire plate reader (PerkinElmer, Inc.). The measured fluorescence values were fitted to a single exponential function by using GraphPad Prism 8 software.

[4] = system: CA, Lyo, Myo, BRD4-BD1, KRas G12D, STAT5B-NTD; experiment: Intact MS labeling compared over all protein targets; format: binding; settings: of the six protein targets
Procedure: Using a plate-based format with one fragment per well, each fragment was incubated with the target proteins for 15 min to allow for the formation of non-covalent interactions. The plate was then irradiated at 302 or 365 nm for 10 min to enable the bound fragments to crosslink to the protein[26]. Finally, the results were directly analyzed from the plate using intact protein mass spectrometry by observing the mass additions that correspond to successful labeling (Fig. 2c, for labeling % values see Supplementary data). The library was first characterized against three benchmark proteins like carbonic anhydrase (CA), lysozyme (Lyo), and myoglobin (Myo).
The PhP library was screened against BRD4-BD1 and KRas^G12D as follows. Using a Labcyte Echo® 555 Liquid Handler, 150 nL of fragment solution (20 mM) was transferred into a Greiner 384 low-volume plate (white) to prepare the probe plate. The probe plate was placed on ice. 15 μL of protein stock solution (1 μM BRD4-BD1 (GSK/GenScript) or KRas^G12D (GSK/GenScript) in PBS buffer) was dispensed into wells containing fragments. The plate was left on ice for 15 min for incubation, then irradiated at 302 nm for 10 min, and centrifuged (1000 rpm, 1 min) to remove any bubbles. The plate was then analyzed by LCMS-TOF mass spectrometry (Agilent 1200 series liquid chromatography with Agilent Bio-HPLC PLRP-S (1000 Å, 5 µm × 50 mm × 1.0 mm, PL1312-1502) reverse phase HPLC column at 70 °C equipped with an Agilent G6224 time-of-flight (ToF), see Supplementary Note 2 for the full protocols). The deconvoluted spectra were analyzed using R Studio software.
During the analysis, the column temperature was maintained at a constant 60 °C, and a sample volume of 3 µL was injected for each analysis. Data acquisition was conducted in positive ion mode within the m/z 100–2000 (mass-to-charge ratio) range. For the full protocol and spectra of the hits, see Supplementary Note 2.

STAT5B-NTD [5] = system: T1, STAT5B-NTD; experiment: Intact MS photoaffinity labeling screen, STAT5B-NTD (365 nm, UHPLC-MS); format: binding;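 as to MS labeling percentage, STAT5B: 0.17 µL of 100 mM DMSO fragment stock added to the protein sample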
Summary of the method: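 Intact-protein labeling detected by UHPLC-MS in positive ion mode over m/z 100–2000. Samples were first photo-crosslinked at 365 nm for 10 min at 4 °C. Before irradiation, 7 µM STAT5B in PBS pH 7.4 was pre-incubated with probe for 1 h in the dark at room temperature.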

[6] = sheet PhP, experimental hit status flag given as 0 or 1

CC1(CCC(=O)Nc2ccc(-c3ncccc3O)cc2)N=N1 [PhP060, N1=NC1(C)CCC(=O)Nc2ccc(cc2)-c3ncccc3O]
MS labeling percentage, STAT5B+photocat (STAT5B-NTD [1]): 8.8% | MS labeling percentage, KRas (KRas^G12D; KRas G12D, 302 nm 10 min): 13.7% | KRAS-G12D (experimental hit status) (KRas^G12D; [6]): 1 | MS labeling percentage, Lyo (lysozyme (Lyo)): 16.1% | MS labeling percentage, CA [2]: 17.3% | BRD4-BD1 (experimental hit status) (BRD4-BD1): 0 | MS labeling percentage, Myo (myoglobin (Myo)): 24.9% | Effect on SOS1-mediated nucleotide exchange of KRas ([3]; prior to irradiation): no effect | Effect on SOS1-mediated nucleotide exchange of KRas ([3]; upon irradiation (366 nm, 10 min)): no effect | Number of proteins labeled [4]: four | MS labeling percentage, STAT5B (STAT5B-NTD [5]; STAT5B-NTD, 365 nm 10 min, no photocatalyst): 0% | STAT5B-NTD (experimental hit status) (STAT5B-NTD [5]; [6]): 0
